Assay results from ChEMBL document CHEMBL1123054, “Synthesis and dopamine autoreceptor activity of a 5-(methylmercapto)methyl-substituted derivative of (+/-)-3-PPP (3-(3-hydroxyphenyl)-1-n-propylpiperidine)” (J Med Chem, 1985).

What was measured:
Mus musculus [1] = experiment: Dopa accumulation induced by GBL was measured in mouse after subcutaneous administration of 32 umol/kg of compound; assay type: functional
Rattus norvegicus [2] = species: Rattus norvegicus; experiment: In vitro inhibitory activity was determined against dopamine synthesis in rat striatal synaptosomes; details: Brain
Mus musculus [3] = experiment: Dose required to produce convulsions in mouse was determined after subcutaneously administration; assay type: functional
Rattus norvegicus [4] = species: Rattus norvegicus; experiment: In vitro inhibitory activity was determined against dopamine synthesis in rat striatal synaptosomes; details: Brain; remark: listed apart in the source

Structure (SMILES)	Accumulation (Mus musculus [1]) [%]	IC50 (Rattus norvegicus [2]) [µM]	Dose (Mus musculus [3]) [µM/kg]	IC50 (Rattus norvegicus [4]) [µM]
CCCN1CCCC(c2cccc(O)c2)C1 (stereo not given)	60	55	–	–
CCCN1C[C@H](CSC)C[C@H](c2cccc(O)c2)C1	89	–	100	45
